Reference: patent US20050215562A1, “Methods for treating protein aggregation disorders” (priority 2003, published 2005)

Columns and labels:
NAC peptide [1] = biological target: T1, NAC peptide (Homo sapiens, UniProt P37840); experiment: Circular dichroism (CD) analysis of NAC peptide conformation after incubation with test compounds (fibrillogenesis assay); format: biochemical; set-up: key to CD Result (NAC conformation observed): Random Coil: signifies that the NAC in the sample was observed to have been maintained in its original random coil conformation indicating that the compound coincubated with NAC is active; signifies that the compound was not able to prevent the shift from random coil to β-sheet; β-sheet/β-turn: signifies that the compound was not able to prevent the shift from random coil to β-sheet; Transition: signifies that the NAC was observed to be in the process of converting from random coil to β-sheet indicating that the compound was able to slow down the conformational change and indicates activity; conditions: for CD Result (NAC conformation observed): 125 μL of 40 μM NAC peptide with 125 μL of 200 μM test compound, pH 7.4, 37° C., conformations over repeated trials; for Activity (CD): active if it prevents the transition to β-turn/β-sheet in 50% or more of the trials; for Activity: active trials / trials: number of CD trials in which transition to β-turn/β-sheet was prevented, over trials run
T1 construct: a 35 amino acid peptide corresponding to residues 61 to 95 of the α-synuclein protein; made in house; host or cells: chemical solid-phase peptide synthesis (Fmoc), not expressed
Procedure: 2 mM Solutions were prepared in TBSA buffer (Tris 0.02 M, NaCl 0.15 M, NaN3 0.005%, pH 7.4) and stored at 4° C. For the assays, compounds were diluted to the desired concentrations in TBSAE buffer (Tris 0.02 M, NaCl 0.15 M, NaN3 0.005%, EDTA 100 μM, pH 7.4) and combined with the NAC peptides.
(§1) Fibrillogenesis assays were employed to identify test compounds that inhibit NAC's ability to assemble into fibers. Following removal of HFIP by evaporation under N2 gas, 20 μM NAC peptide is incubated in the assay buffer (0.02M Tris, 0.15 M NaCl, 0.005% NaN3, 100 uM EDTA) at 37° C. in a Perkin-Elmer HTS 7000 plus microplate reader with shaking for 1 minute every twenty minutes. The presence of fibers can be monitored by three different methods.
(§2) The following assays were set up in clear polystyrene 96 well microplates by combining 125 μL of 40 μM NAC peptide with 125 μL of 200 μM test compound in 0.02M Tris, 0.15 M NaCl, 0.005% NaN3, […]. The microplates were sealed with a plastic sheet and incubated at 37° C. in a Perkin-Elmer HTS 7000 microplate reader with shaking for 1 minute, every 20 minutes. • Thioflavin T Analysis. To perform this assay 5 μM Thioflavin T is added to the NAC assembly conditions described above. The fluorescence is measured at 430 excitation/485 emission every twenty minutes with a Perkin-Elmer HTS microplate reader for the duration of the assay. […] This assay allows for the identification of compounds that can inhibit this increase in fluorescence upon incubation. • Turbidity Analysis. Alternatively, NAC peptide that has been incubated with test compounds in the appropriate assembly conditions can be analyzed by reading the absorbance at 405 nm to follow the turbidity of the solution which is also an indication of the formation of aggregates. • Circular Dichroism (CD) Analysis. […] This assay allows for the identification of compounds that can prevent NAC from adopting a β-sheet/β-turn conformation upon incubation. • At the appropriate time point, during the incubation, the test solutions were transferred to 0.1-cm path length quartz cuvettes and scanned by CD spectroscopy between 190 and 260 nm, with a resolution of 0.1 nm and a bandwidth of 1 nm using a Jasco J-715 spectropolarimeter at 37° C. […] At the time point at which CD scans are performed a 3 μl aliquot is removed from the sample, spotted onto a Formvar grid and then negatively stained with 4% uranyl acetate. The grids were examined for the presence of fibrils and amorphous aggregates using a JOEL 2000 transmission electron microscope at a 25,000 × magnification. This assay can be used to confirm the absence of fibers in the presence of compounds which inhibit NAC assembly by ThT and CD. The final results were obtained by averaging 10 complete sectors.
For compounds that have been tested multiple times, a compound is classified as active if it prevents the transition to β-turn/β-sheet in 50% or more of the trials.

NAC peptide [2] = biological target: T1, NAC peptide; experiment: Binding of compounds to NAC peptide by electrospray mass spectrometry; conditions: area of bound NAC-compound complex peaks divided by area of unbound NAC peaks; 5:1 compound:NAC, pH 7.4, 6.6% EtOH
Procedure: The ability of the compounds of the present invention to bind to NAC peptide in aqueous solution was evaluated. The binding ability correlates to the intensities of the peptide-compound complex peaks observed by the Electrospray Mass Spectrum. Millipore distilled deionized water was used to prepare all aqueous solutions. For pH determination a Beckman (Φ36 pH meter fitted with a Corning Semi-Micro Combination pH Electrode was employed.
The optimal cone voltage was determined to be 20V.
Mass spectrometry: Mass spectrometric analysis was performed using a Waters ZQ 4000 mass spectrometer equipped with a Waters 2795 sample manager. MassLynx 4.0 (earlier by MassLynx 3.5) was used for data processing and analysis. Test compounds were mixed with disaggregated peptides in aqueous media (6.6% EtOH) at a 5:1 ratio (20 μM NAC: 100 μM of test compound or 40 μM NAC : 200 μM of test compound). The pH of the mixture was adjusted to 7.4 (±0.2) using 0.1% NaOH (3-5 μL). Periodically, NAC peptide solution at 20 μM or 40 μM was also prepared in the same fashion and run as control. The spectra were obtained by introducing the solutions to the electrospray source by direct infusion using a syringe pump at a flow rate of 25 μl/min, and scanning from 100 to 2100 Da in the positive mode. The scan time was 0.9 sec per scan with an inter-scan delay of 0.1 sec and the run time was 5 min for each sample. All the mass spectra were sum of 300 scans. The desolvation and source temperature was 70° C. and the cone and capillary voltage were maintained at 20 V and 3.2 kV respectively.
The total area under the peaks for the bound NAC-compound complex divided by total area under the peaks for unbound NAC was determined for each compound tested.

NAC peptide [3] = biological target: T1, NAC peptide; experiment: Electron microscopy (EM) analysis of NAC fiber formation in the fibrillogenesis assay; format: biochemical; conditions: for EM Score: amount of fibers compared to NAC alone (100% fibers), 10 frames of a 300-mesh grid
Procedure: as §1, §2
Analysis by Electron Microscopy: The fibrillogenesis assays performed for CD analysis were also spotted for EM. The electron micrographs are visually examined and a score is assigned as follows. Briefly, 10 representative frames from a 300-mesh grid are analyzed and given a score representing the amount of fibers formed in the sample as compared to a micrograph with NAC alone without a test compound (100% fibers). A score was assigned based on this analysis on a scale from 0% to 100% fibers: (−) indicates an observation of less than about 25% fibers; (+) indicates about 25% fibers; (++) about 50% fibers; (+++) indicates about 75% fibers; and (++++) 100% fibers. […]

`CCCCCCCCCCCCCCCCS(C)(C)CCCS(=O)(=O)O` [compound 11] was tested, and the “CD Result (NAC conformation observed)” value (NAC peptide [1]) was “Random Coil”, the “Activity (CD)” value (NAC peptide [1]) was “Coil” and the “Activity: active trials / trials” value (NAC peptide [1]) was 4/4. For the same compound, the “Binding Strength” value (NAC peptide [2]) was “++ (Moderate; when the total binding is between 120% and 70%)”.

With `O=S(=O)(O)CCCN1CCN(Cc2ccccc2)CC1` [compound 12] the “CD Result (NAC conformation observed)” value (NAC peptide [1]) was “β-turn Transition”, the “Activity (CD)” value (NAC peptide [1]) was “No” and the “Activity: active trials / trials” value (NAC peptide [1]) was “⅓”. For the same compound, the “Binding Strength” value (NAC peptide [2]) was “++ (Moderate; when the total binding is between 120% and 70%)”.

In the case of `O=S(=O)(O)CCCN1CCc2c([nH]c3ccccc23)C1` [compound 13], the “CD Result (NAC conformation observed)” value (NAC peptide [1]) is reported as “Random coil Transition”, the “Activity (CD)” value (NAC peptide [1]) is reported as “Yes” and the “Activity: active trials / trials” value (NAC peptide [1]) is reported as 3/3. For the same compound, the “Binding Strength” value (NAC peptide [2]) was “+++ (Strong; when the total binding is 120% and higher)”.

For `CC(=O)C1(c2ccccc2)CCN(CCCS(=O)(=O)O)CC1` [compound 15], the “CD Result (NAC conformation observed)” value (NAC peptide [1]) was “β-sheet/β- turn Random Coil”, the “Activity (CD)” value (NAC peptide [1]) was “No” and the “Activity: active trials / trials” value (NAC peptide [1]) was “¼”. The “Binding Strength” value (NAC peptide [2]) was “+++ (Strong; when the total binding is 120% and higher)”.

In the case of `CC[N+](CC)(CC)CCCS(=O)(=O)[O-]` [compound 16], the “CD Result (NAC conformation observed)” value (NAC peptide [1]) is reported as “Random Coil”, the “Activity (CD)” value (NAC peptide [1]) is reported as “Yes” and the “Activity: active trials / trials” value (NAC peptide [1]) is reported as 3/3. The “Binding Strength” value (NAC peptide [2]) was “Indeterminant”.

For `CC[N+](CC)(CC)CCCS(=O)(=O)[O-]` [drawing 62], the “Activity (EM)” value (NAC peptide [3]) was “Yes” and the “EM Score” value (NAC peptide [3]) was “AA+”.

`NCCCCS(=O)(=O)O` [drawing 63] was tested, and the “Activity (EM)” value (NAC peptide [3]) was “Yes” and the “EM Score” value (NAC peptide [3]) was “AA+”.

With `O=S(=O)(O)CC(O)CNC1CCCCC1` (stereo not drawn) [drawing 64] the “Activity (EM)” value (NAC peptide [3]) was “No” and the “EM Score” value (NAC peptide [3]) was “+++ ((+++) indicates about 75% fibers)”.

For `O=S(=O)(O)CCC[N+]12CCC(CC1)CC2` [drawing 65], the “Activity (EM)” value (NAC peptide [3]) was “Yes” and the “EM Score” value (NAC peptide [3]) was “+ ((+) indicates about 25% fibers)”.

For heparin [reference compound], the “Effect on NAC conformation by CD” value (NAC peptide [1]; NAC incubated in presence of heparin, minimum at 218 nm typical of β-sheet) was “promotes a conformational change” and the “Appearance of NAC fibers by EM” value (NAC peptide [3]; NAC in the presence of heparin) was “longer and more interwined fibers”.
